Experimental data: ChEMBL document CHEMBL3259629, “Discovery and optimization of piperidyl-1,2,3-triazole ureas as potent, selective, and in vivo-active inhibitors of α/β-hydrolase domain containing 6 (ABHD6)” (J Med Chem, 2013)

How the values were obtained:
Conditions in all cases: Neuro2a, 3 nM
[1] = target: T1, Acyl-coenzyme A thioesterase 2, mitochondrial (Mus musculus) (UniProt Q9QYR9)
T1 sequence (whole entry): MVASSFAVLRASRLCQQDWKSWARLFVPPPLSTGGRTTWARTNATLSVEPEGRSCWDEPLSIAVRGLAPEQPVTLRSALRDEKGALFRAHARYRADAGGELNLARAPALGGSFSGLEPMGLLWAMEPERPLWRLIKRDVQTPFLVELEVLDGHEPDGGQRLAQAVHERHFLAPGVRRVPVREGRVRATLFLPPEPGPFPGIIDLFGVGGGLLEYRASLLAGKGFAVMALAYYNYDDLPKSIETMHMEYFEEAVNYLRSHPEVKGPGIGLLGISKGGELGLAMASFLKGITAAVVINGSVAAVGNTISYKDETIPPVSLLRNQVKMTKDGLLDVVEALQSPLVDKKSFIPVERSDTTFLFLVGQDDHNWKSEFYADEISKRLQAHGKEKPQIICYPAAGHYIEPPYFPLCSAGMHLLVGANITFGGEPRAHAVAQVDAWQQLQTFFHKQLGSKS
Description: Inhibition of Acot2 in mouse Neuro2a cells at 3 nM after 4 hrs by ABPP-SILAC assay

[2] = target: T2, Serine hydrolase-like protein (Mus musculus) (UniProt Q9EPB5)
T2 sequence (whole entry): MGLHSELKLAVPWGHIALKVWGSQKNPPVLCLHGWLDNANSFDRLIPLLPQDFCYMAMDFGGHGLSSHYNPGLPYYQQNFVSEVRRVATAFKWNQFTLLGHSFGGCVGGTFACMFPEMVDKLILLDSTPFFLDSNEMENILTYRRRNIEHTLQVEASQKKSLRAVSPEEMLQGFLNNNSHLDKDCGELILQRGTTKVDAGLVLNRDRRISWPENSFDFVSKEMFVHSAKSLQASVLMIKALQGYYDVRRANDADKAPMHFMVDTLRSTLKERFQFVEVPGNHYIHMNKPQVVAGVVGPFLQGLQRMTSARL
Description: Inhibition of Serhl in mouse Neuro2a cells at 3 nM after 4 hrs by ABPP-SILAC assay

[3] = target: T3, S-formylglutathione hydrolase (Mus musculus) (UniProt Q9R0P3)
T3 sequence (whole entry): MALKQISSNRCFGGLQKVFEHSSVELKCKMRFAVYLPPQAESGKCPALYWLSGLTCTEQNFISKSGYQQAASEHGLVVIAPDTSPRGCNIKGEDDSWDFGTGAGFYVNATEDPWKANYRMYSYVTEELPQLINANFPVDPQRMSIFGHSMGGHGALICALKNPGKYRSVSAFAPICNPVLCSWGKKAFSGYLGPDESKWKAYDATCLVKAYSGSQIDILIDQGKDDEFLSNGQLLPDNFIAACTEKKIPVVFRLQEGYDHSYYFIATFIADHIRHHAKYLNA
Description: Inhibition of Esd in mouse Neuro2a cells at 3 nM after 4 hrs by ABPP-SILAC assay

[4] = target: T4, Acylamino-acid-releasing enzyme (Mus musculus) (UniProt Q8R146)
T4 sequence (whole entry): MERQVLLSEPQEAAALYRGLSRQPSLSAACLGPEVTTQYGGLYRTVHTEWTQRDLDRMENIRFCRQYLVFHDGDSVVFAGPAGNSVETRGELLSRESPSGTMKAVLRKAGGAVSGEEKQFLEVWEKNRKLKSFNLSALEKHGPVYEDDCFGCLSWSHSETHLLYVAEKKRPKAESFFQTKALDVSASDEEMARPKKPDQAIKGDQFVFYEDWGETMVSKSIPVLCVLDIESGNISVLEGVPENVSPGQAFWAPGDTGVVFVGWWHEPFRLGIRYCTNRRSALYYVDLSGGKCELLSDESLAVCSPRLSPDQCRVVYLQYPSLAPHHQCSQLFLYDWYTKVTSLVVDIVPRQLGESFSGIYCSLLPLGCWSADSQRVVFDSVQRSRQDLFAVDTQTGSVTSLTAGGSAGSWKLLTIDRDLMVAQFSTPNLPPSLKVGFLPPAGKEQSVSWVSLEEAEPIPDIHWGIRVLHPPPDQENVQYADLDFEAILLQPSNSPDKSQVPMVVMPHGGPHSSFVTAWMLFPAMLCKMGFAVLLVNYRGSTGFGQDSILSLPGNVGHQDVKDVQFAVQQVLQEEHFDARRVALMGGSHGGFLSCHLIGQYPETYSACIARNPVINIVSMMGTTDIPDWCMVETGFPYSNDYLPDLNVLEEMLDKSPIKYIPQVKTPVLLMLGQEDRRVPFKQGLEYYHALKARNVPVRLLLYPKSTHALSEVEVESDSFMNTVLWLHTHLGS
Description: Inhibition of Apeh in mouse Neuro2a cells at 3 nM after 4 hrs by ABPP-SILAC assay

[5] = target: T5, Marginal zone B- and B1-cell-specific protein (Mus musculus) (UniProt Q9D8I1)
T5 sequence (whole entry): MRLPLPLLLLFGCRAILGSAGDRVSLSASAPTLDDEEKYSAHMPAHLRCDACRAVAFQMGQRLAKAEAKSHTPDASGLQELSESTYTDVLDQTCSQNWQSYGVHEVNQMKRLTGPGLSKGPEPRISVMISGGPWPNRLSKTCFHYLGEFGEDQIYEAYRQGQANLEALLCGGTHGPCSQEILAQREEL
Description: Inhibition of Perp1 in mouse Neuro2a cells at 3 nM after 4 hrs by ABPP-SILAC assay

[6] = target: T6, Lysosomal thioesterase PPT2 (Mus musculus) (UniProt O35448)
T6 sequence (whole entry): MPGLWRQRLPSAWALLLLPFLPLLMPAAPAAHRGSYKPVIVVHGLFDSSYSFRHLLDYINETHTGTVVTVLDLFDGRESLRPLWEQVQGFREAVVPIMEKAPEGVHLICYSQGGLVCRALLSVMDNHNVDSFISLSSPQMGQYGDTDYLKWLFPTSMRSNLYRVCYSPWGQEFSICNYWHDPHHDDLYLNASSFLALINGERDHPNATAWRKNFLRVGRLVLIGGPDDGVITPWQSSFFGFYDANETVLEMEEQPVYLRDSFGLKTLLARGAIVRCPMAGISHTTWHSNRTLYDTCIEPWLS
Description: Inhibition of Ppt2 in mouse Neuro2a cells at 3 nM after 4 hrs by ABPP-SILAC assay

[7] = target: T7, Retinoid-inducible serine carboxypeptidase (Mus musculus) (UniProt Q920A5)
T7 sequence (whole entry): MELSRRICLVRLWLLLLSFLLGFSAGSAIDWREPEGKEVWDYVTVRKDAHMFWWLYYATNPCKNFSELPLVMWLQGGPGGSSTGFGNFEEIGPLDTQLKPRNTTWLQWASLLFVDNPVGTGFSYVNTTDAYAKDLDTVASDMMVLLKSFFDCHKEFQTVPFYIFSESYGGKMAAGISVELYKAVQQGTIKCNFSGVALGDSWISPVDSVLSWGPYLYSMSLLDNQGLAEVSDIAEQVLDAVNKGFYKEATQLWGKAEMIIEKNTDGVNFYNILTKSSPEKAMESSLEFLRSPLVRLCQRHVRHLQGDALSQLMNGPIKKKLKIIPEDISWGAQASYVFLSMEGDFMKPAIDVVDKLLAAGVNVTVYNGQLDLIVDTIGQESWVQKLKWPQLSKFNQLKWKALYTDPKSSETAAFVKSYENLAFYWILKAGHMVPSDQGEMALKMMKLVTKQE
Description: Inhibition of Scpep1 in mouse Neuro2a cells at 3 nM after 4 hrs by ABPP-SILAC assay

[8] = target: Tissue-type plasminogen activator (Mus musculus) (UniProt P11214)
Description: Inhibition of Plat in mouse Neuro2a cells at 3 nM after 4 hrs by ABPP-SILAC assay

[9] = target: Dipeptidyl peptidase 9 (Mus musculus) (UniProt Q8BVG4)
Description: Inhibition of DPP9 in mouse Neuro2a cells at 3 nM after 4 hrs by ABPP-SILAC assay

Measured: inhibition

Tissue-type plasminogen activator (Mus musculus), sequence (P11214 whole entry): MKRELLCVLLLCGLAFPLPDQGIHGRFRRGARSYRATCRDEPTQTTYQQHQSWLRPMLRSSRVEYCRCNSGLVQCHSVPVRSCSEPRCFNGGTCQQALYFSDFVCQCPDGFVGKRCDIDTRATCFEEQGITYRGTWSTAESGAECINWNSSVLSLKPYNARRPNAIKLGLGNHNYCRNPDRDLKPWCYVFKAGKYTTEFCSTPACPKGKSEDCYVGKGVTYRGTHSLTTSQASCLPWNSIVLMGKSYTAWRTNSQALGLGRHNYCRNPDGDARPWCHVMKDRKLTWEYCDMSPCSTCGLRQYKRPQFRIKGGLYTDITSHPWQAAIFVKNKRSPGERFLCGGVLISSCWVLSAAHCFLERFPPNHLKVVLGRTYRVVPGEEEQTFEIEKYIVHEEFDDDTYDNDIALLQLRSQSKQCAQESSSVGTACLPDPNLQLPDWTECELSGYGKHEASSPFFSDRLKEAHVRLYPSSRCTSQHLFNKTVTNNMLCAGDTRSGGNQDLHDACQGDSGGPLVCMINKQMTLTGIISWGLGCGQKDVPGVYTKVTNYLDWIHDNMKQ
Dipeptidyl peptidase 9 (Mus musculus), sequence (Q8BVG4 whole entry): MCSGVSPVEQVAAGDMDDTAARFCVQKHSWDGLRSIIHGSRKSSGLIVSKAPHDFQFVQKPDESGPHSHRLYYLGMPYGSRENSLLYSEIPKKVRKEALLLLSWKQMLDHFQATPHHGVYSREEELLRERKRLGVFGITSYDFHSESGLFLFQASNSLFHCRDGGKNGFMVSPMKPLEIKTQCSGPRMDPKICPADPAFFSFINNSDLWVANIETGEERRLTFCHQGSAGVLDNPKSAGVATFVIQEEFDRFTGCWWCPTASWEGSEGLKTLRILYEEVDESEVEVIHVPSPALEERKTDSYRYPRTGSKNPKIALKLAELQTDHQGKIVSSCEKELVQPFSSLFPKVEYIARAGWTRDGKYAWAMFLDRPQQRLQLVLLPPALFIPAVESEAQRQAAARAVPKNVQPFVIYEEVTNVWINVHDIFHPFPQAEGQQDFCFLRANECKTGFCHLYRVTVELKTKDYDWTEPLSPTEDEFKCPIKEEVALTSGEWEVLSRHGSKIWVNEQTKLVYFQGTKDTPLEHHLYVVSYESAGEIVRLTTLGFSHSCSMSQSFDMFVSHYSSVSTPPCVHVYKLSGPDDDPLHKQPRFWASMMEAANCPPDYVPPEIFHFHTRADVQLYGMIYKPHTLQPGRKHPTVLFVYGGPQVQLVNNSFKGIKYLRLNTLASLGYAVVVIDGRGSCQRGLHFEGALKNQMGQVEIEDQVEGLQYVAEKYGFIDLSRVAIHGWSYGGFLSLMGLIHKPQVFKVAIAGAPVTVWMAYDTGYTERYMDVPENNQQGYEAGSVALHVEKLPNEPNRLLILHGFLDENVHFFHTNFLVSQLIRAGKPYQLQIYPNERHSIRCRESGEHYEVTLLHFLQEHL

O=C(c1cccc(-c2ccc(-c3cn(C(=O)N4CCCCC4c4ccccc4)nn3)cc2)c1)N1CCCCC1 (racemic)
< 50%: all assays above

O=C(O)c1cccc(-c2ccc(-c3cn(C(=O)N4CCCCC4Cc4ccccc4)nn3)cc2)c1 (racemic)
< 50%: all assays above

O=C(N1CCCCC1c1ccccc1)n1cc(-c2ccc(-c3cccc(CO)c3)cc2)nn1 (racemic)
< 50%: all assays above
